Assay results published in patent US12433876B2, “Septin inhibitors for treatment of cancers” (UNIVERSITY OF ROCHESTER, priority 2019, dated 2025).

Tests used:
HE4 = HE4 ELISA, secreted and intracellular levels; assay type: cell-based, human
Protocol: Cell lines, Culture, and Reagents. Cells were maintained in either DMEM (SKOV-3, KLE, OVCAR-3, OVCAR8-C5 and IGROV-1) or RPMI-1640 (ECC-1 and HCH-1), supplemented with 10% fetal calf serum (or 20% for OVCAR-3), penicillin (100 units/mL), and streptomycin (100 μg/mL) at 37° C. with 5% CO2 in a humidified incubator. Antibodies were purchased from Abcam (septin-2; ab179436) and Cell Signaling Technology; ERK (9102), p-ERK (4370), -actin (3700), u-Tubulin (2144), EGFR (4267) and HER2 (4290). FCF was purchased from Abcam. All other chemicals were from Sigma Aldrich. Synthesis of Derivaties. […] The reaction was monitored using thin-layer chromatography plates with DCM-MeOH or pure ethyl acetate as eluent. Spots were monitored in a UV chamber. The reaction mixture, upon completion of the reaction, was poured into wet ice mixture and triturated, then the separated solid was filtered by vacuum. The product was washed with hexane, followed by diethyl ether, and was dried under vacuum. The compounds were characterized by spectrophotometric techniques. Quantitative Real-Time PCR. The indicated cell lines were transfected with siRNA targeting septin-2 or non-targeting control siRNA (Santa Cruz Biotechnology: sc-37007 or sc-40936) using Lipofectamine 3000 (Invitrogen). Tri reagent and Direct-zol kit (Zymo Research) were used to lyse and isolate total RNA. Reverse transcription was performed using iScript cDNA synthesis kit (BioRad), both following the manufacturer's recommendations. Quantitative real-time PCR was conducted using QuantStudio 12 K Flex Real-Time PCR System (ABI) and the Taqman Gene Expression Assay (ABI) consisting of the FAM-labeled probes as follows: SEPT2 (Hs01565417_ml); WFDC2 (Hs00899484_ml); TBP (Hs00427620_ml) or B2M (Hs00187842_ml), which was used as reference for normalization. Cell Viability, Proliferation and Apoptosis Assay. Cell viability, proliferation, and cellular apoptosis were measured using the MTS (Promega), BrdU cell proliferation (Cell Signaling Technology), and Caspase-Glo 3/7 apoptosis detection (Promega) assays, following the respective manufacturer's recommendations with suitable modification. Enzyme-Linked Immunosorbent Assay (ELISA) and Immunoblotting. Cells were maintained overnight in the culture media described above. […] Following the treatment, cell lysates and supernatants were collected and subjected to HE4 assay (Human HE4 Quantikine ELISA Kit, R&D Systems). The amount of HE4 in supernatant was normalized to the protein concentration of matching cell lysate. The levels of HER2 were determined by Human Total ErbB2/Her2 DuoSet IC ELISA (R&D systems. Wester blot analysis was conducted using the protocol previously published (see Kim, K. K. et al. Tetrathiomolybdate inhibits mitochondrial complex IV and mediates degradation of hypoxia-inducible factor-1alpha in cancer cells. Sci. Rep. 5, 14296, 2015). Data Acquisition and Statistical Analysis. Gene expression profiling of septins, comparing microdissected normal ovarian stroma (N=8) against that of tumor stroma samples (N=31) from high grade serous ovarian cancer patients, was obtained from Mixed Ovarian Cancer (CAFs)-Wong-77-u133p2 data-set through ‘R2: Genomics Analysis and Visualization Platform (http://r2/am/n1). […] Survival curves between septin high and low population and their statistical significance were analyzed using GraphPad Prism software (Mantel-Cox test). […]

PANC-1 cell line = assay: RNA-Seq whole transcriptome analysis, PANC-1; assay type: cell-based, human; details: 10 nM Afatinib, 1 μM UR214-9
pSTAT-3 = assay: Immunoblot of phosphorylated STAT-3; assay type: cell-based
BXPC-3 cells = assay: Cell cycle analysis (PI, flow cytometry), BXPC-3; assay type: cell-based, human; details: BXPC-3, 100 nM
Protocol: (§1) For cell cycle analysis, BXPC-3 and PANC-1 and JIMT-1 cells (100,000/well) were seeded overnight in a 6 well dishes and allowed to adhere overnight. Media was replaced with fresh complete medium supplemented with DMSO or UR214-9 (100 nM and 3 μM) and cells were incubated for 72 hours. The media containing the drugs was removed and cells were washed twice with PBS and trypsinized gently. The cells were collected in 15 mL tubes, complete DMEM media was added to block trypsin and cells were centrifuged. The supernatants were removed and cells were gently treated with 70% cold-EtOH for 30 minutes. The fixed cells were centrifuged and the pellets obtained were collected in flow cytometry tubes and stained with preformulated PI/RNase solution (Cell Signaling Technology, catalog number: 4087s) for 30 minutes. The PI content was analyzed using a flow cytometer. Data was processed using Flowjo software.

PANC-1 cells = assay: Cell cycle analysis (PI, flow cytometry), PANC-1; assay type: cell-based, human
Protocol: as §1

EGFR = assay: Western blot of EGFR expression; assay type: cell-based; details: UR214-7 33 μM, UR214-9 33 μM; 24 hours
Protocol: Cell lines, Culture, and Reagents. Cells were maintained in either DMEM (SKOV-3, KLE, OVCAR-3, OVCAR8-C5 and IGROV-1) or RPMI-1640 (ECC-1 and HCH-1), supplemented with 10% fetal calf serum (or 20% for OVCAR-3), penicillin (100 units/mL), and streptomycin (100 μg/mL) at 37° C. with 5% CO2 in a humidified incubator. Antibodies were purchased from Abcam (septin-2; ab179436) and Cell Signaling Technology; ERK (9102), p-ERK (4370), -actin (3700), u-Tubulin (2144), EGFR (4267) and HER2 (4290). FCF was purchased from Abcam. All other chemicals were from Sigma Aldrich. Synthesis of Derivaties. […] The reaction was monitored using thin-layer chromatography plates with DCM-MeOH or pure ethyl acetate as eluent. Spots were monitored in a UV chamber. […] Quantitative Real-Time PCR. […] Quantitative real-time PCR was conducted using QuantStudio 12 K Flex Real-Time PCR System (ABI) and the Taqman Gene Expression Assay (ABI) consisting of the FAM-labeled probes as follows: SEPT2 (Hs01565417_ml); WFDC2 (Hs00899484_ml); TBP (Hs00427620_ml) or B2M (Hs00187842_ml), which was used as reference for normalization. […] Cell viability, proliferation, and cellular apoptosis were measured using the MTS (Promega), BrdU cell proliferation (Cell Signaling Technology), and Caspase-Glo 3/7 apoptosis detection (Promega) assays, following the respective manufacturer's recommendations with suitable modification. […]

SMILES | HE4 secretion (HE4; ECC-1 and HCH-1 cells, 5 hours) | HE4 secretion (HE4; OVCAR8-C5, 300 μM for 7 h) | intracellular levels of HE4 (HE4; OVCAR8-C5, 300 μM for 7 h) | significantly differentially expressed genes versus control (PANC-1 cell line) | phosphorylation of STAT-3 (pSTAT-3; MDA-MB-231, JIMT-1 and MCF-7 cells, 10 and 30 μM, 24 hours) | phosphorylated STAT-3 (pSTAT-3; PANC-1) | cell cycle distribution (BXPC-3 cells) | cell cycle distribution (PANC-1 cells; PANC-1, 100 nM) | cell cycle distribution (PANC-1 cells; PANC-1, 3 μM) | EGFR expression (EGFR)
O=C(Nc1ccccc1)Nc1ccnc(Cl)c1 [FCF, N-(2-chloro-4-pyridyl)-N′-phenylurea, reference compound] | dose-dependent | decrease in HE4 secretion | marginal increase | – | – | – | – | – | – | –
O=C(Nc1cc(Cl)nc(Cl)c1)Nc1cccc(SC(F)(F)F)c1F [UR214-9] | – | – | – | no differentially expressed genes | reduced phosphorylation of STAT-3 | reduced phosphorylated STAT-3 | no change in cell cycle distribution | minor S-phase arrest | complete arrest in sub-G1/G0 phase | did not have an effect
